Data: the CheMixHub drug solubility set

Assay: xn = mol fraction of the nth substance listed, in the solute-free solvent

Nc1nccnc1Cl + CN(C)C=O + O
solubility (g/100 g solution)
Conditions | 278.15 K | 283.15 K | 288.15 K | 293.15 K | 298.15 K | 303.15 K | 308.15 K | 313.15 K | 318.15 K | 323.15 K
x2 = 0.02666 | 0.123 | 0.162 | 0.208 | 0.257 | 0.308 | 0.359 | 0.41 | 0.469 | 0.522 | 0.579
x2 = 0.05806 | 0.379 | 0.491 | 0.623 | 0.761 | 0.903 | 1.04 | 1.18 | 1.34 | 1.47 | 1.62
x2 = 0.09556 | 0.721 | 0.929 | 1.17 | 1.43 | 1.69 | 1.95 | 2.2 | 2.48 | 2.72 | 2.98
x2 = 0.1412 | 1.01 | 1.3 | 1.64 | 2.01 | 2.38 | 2.75 | 3.11 | 3.5 | 3.86 | 4.23
x2 = 0.1978 | 1.14 | 1.5 | 1.9 | 2.35 | 2.8 | 3.27 | 3.75 | 4.24 | 4.69 | 5.16
x2 = 0.27 | 1.26 | 1.69 | 2.14 | 2.67 | 3.17 | 3.72 | 4.29 | 4.84 | 5.41 | 6.03
x2 = 0.3652 | 1.38 | 1.82 | 2.33 | 2.93 | 3.56 | 4.17 | 4.81 | 5.48 | 6.15 | 6.86
x2 = 0.4965 | 1.5 | 2.02 | 2.55 | 3.24 | 3.93 | 4.64 | 5.37 | 6.21 | 7 | 7.83
x2 = 0.6893 | 1.59 | 2.12 | 2.72 | 3.45 | 4.22 | 5.01 | 5.87 | 6.75 | 7.69 | 8.67

CN1CCN(C2=Nc3cc(Cl)ccc3Nc3ccccc32)CC1 + Cc1ccccc1 + CC(C)=O
323.15 K
Conditions | solubility (g/100 g solution)
x2 = 0.06574 | 13.6
x2 = 0.1358 | 15.9
x2 = 0.2124 | 17.4
x2 = 0.2962 | 17
x2 = 0.3864 | 17
x2 = 0.4859 | 16
x2 = 0.5953 | 14.7
x2 = 0.7159 | 12.9
x2 = 0.8497 | 10.3

c1ccc2[nH]c(-c3cscn3)nc2c1 + CO + O
solubility (g/100 g solution)
Conditions | 283.15 K | 288.15 K | 293.15 K | 298.15 K | 303.15 K | 308.15 K | 313.15 K | 318.15 K | 323.15 K
x2 = 0.05881 | 0.00229 | 0.00287 | 0.00369 | 0.00466 | 0.00574 | 0.00699 | 0.00862 | 0.0104 | 0.0128
x2 = 0.1233 | 0.0131 | 0.0159 | 0.0194 | 0.0238 | 0.0278 | 0.0335 | 0.0401 | 0.0473 | 0.0561
x2 = 0.1942 | 0.0339 | 0.0408 | 0.0481 | 0.0566 | 0.0663 | 0.0786 | 0.0909 | 0.105 | 0.122
x2 = 0.2727 | 0.0719 | 0.0844 | 0.101 | 0.119 | 0.139 | 0.161 | 0.187 | 0.216 | 0.246
x2 = 0.3599 | 0.131 | 0.154 | 0.181 | 0.206 | 0.242 | 0.278 | 0.317 | 0.364 | 0.412
x2 = 0.4576 | 0.21 | 0.243 | 0.283 | 0.328 | 0.368 | 0.419 | 0.477 | 0.541 | 0.616
x2 = 0.5675 | 0.329 | 0.373 | 0.425 | 0.486 | 0.554 | 0.62 | 0.697 | 0.779 | 0.874
x2 = 0.6923 | 0.478 | 0.542 | 0.614 | 0.69 | 0.779 | 0.87 | 0.967 | 1.07 | 1.19
x2 = 0.835 | 0.643 | 0.725 | 0.815 | 0.914 | 1.02 | 1.13 | 1.25 | 1.38 | 1.52
